Some test systems named below: NCI-H23; LOX IMVI; HL-60; SNB-75; MDA-MB-435; UACC-257; CAKI-1; SK-MEL-2; COLO 205; OVCAR-4; CCRF-CEM; SF-268; HCT-15; NCI/ADR-RES; SR; DU-145; SNB-19; SF-295; TK-10; MOLT-4.
Test in all cases: growth of human tumour cells (NCI), 48 h

Consider 7 compounds from ChEMBL document CHEMBL1201862, “PubChem BioAssay data set” (2004).

Molecules are shown by their SMILES.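 Results reflect a 48-hour exposure of cells in 96-well plates to compound at five concentrations. Abbreviation: GI50, concentration required for 50% inhibition of growth.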 Active and inactive are the calls of the source. Rule as the data show it: active = GI50 up to about 1.1 µM and inactive = higher. A value given as a limit tells only on which side of the number the result lay.

Turning to `O=C(OCc1ccccc1)N(CCCCN(CCCNCc1ccccc1)C(=O)OCc1ccccc1)CCCNCc1ccccc1`, the GI50 in the assay on NCI-H23 is 1.77 µM (inactive); in the assay with LOX IMVI, 0.22 µM (active); in the assay with HL-60, 0.186 µM (active); with SNB-75, 1.43 µM (inactive); in the assay with MDA-MB-435, 0.242 µM (active); with UACC-257, 0.36 µM (active). Also, the GI50 in the assay on CAKI-1 was 1.42 µM (inactive); in the assay with SK-MEL-2 it was 1.36 µM (inactive); with COLO 205, 0.262 µM (active); in the assay on OVCAR-4, 1.66 µM (inactive); in the assay with CCRF-CEM, 0.242 µM (active); in the assay on SF-268, 1.57 µM (inactive). The GI50 in the assay with HCT-15 is 0.352 µM; with NCI/ADR-RES it was 1.71 µM (inactive); with SR it was 0.191 µM (active); in the assay on DU-145 it was 1.27 µM (inactive); in the assay with SNB-19, 0.431 µM (active); in the assay on SF-295, 12.2 µM (inactive). The GI50 in the assay on TK-10 was 1.58 µM (inactive); with MOLT-4, 0.194 µM (active).
`Cc1ccc(C2SC(=N)Nc3c2c(C)nn3C(=O)c2ccc(Cl)cc2)cc1` (stereo not given): the GI50 in the assay on NCI-H23, in the assay with LOX IMVI, in the assay on HL-60, with SNB-75, in the assay on MDA-MB-435 and in the assay with UACC-257 was > 10 µM (inactive) throughout. The GI50 in the assay on CAKI-1, in the assay on SK-MEL-2, in the assay on COLO 205, in the assay with OVCAR-4, in the assay on CCRF-CEM and in the assay on SF-268 was > 10 µM (inactive) throughout. In addition, the GI50 in the assay on HCT-15 is > 10 µM; with NCI/ADR-RES it was > 10 µM (inactive); with SR it was > 10 µM (inactive); with DU-145 it was > 10 µM (inactive); in the assay with SNB-19, > 10 µM (inactive); in the assay with SF-295 it was > 10 µM (inactive). In addition, the GI50 with TK-10 and in the assay on MOLT-4 was > 10 µM (inactive) each time.
For `COC(=O)[C@H](C)[C@@H]1CC[C@](C)(CCC2=C(C)CCCC2(C)C)OO1`, the GI50 is > 25 µM (inactive) in the assay on NCI-H23; 8.02 µM (inactive) with LOX IMVI; 12 µM (inactive) in the assay with HL-60; > 25 µM (inactive) in the assay with SNB-75; > 25 µM (inactive) in the assay with MDA-MB-435; > 25 µM (inactive) in the assay on UACC-257. The GI50 is > 25 µM (inactive) in the assay on CAKI-1; > 25 µM (inactive) in the assay on SK-MEL-2; > 25 µM (inactive) in the assay with COLO 205; > 25 µM (inactive) in the assay with OVCAR-4; 19.5 µM (inactive) with CCRF-CEM; > 25 µM (inactive) in the assay on SF-268. Moreover, the GI50 in the assay with HCT-15 was > 25 µM; in the assay with NCI/ADR-RES, > 25 µM (inactive); in the assay on SR it was > 25 µM (inactive); with DU-145, > 25 µM (inactive); in the assay with SNB-19 it was > 25 µM (inactive); in the assay with SF-295 it was > 25 µM (inactive). Besides, the GI50 in the assay with TK-10 and with MOLT-4 was > 25 µM (inactive) throughout.
Take `Cn1c2ccccc2n2c3nc4ccccc4nc3c(C#N)c12`: the GI50 in the assay on NCI-H23 was > 96.8 µM (inactive); with LOX IMVI it was > 100 µM (inactive); with HL-60, > 87.9 µM (inactive); in the assay with SNB-75, > 30.8 µM (inactive); in the assay on MDA-MB-435, > 85.7 µM (inactive); with UACC-257 it was > 82.6 µM (inactive). For the same compound, the GI50 with CAKI-1 is > 100 µM (inactive); in the assay on SK-MEL-2, > 4.65 µM (inactive); in the assay on COLO 205, 70 µM (inactive); in the assay on OVCAR-4 it was > 71.8 µM (inactive); in the assay with CCRF-CEM, 60 µM (inactive); in the assay with SF-268, 81.3 µM (inactive). The GI50 is 9.29 µM in the assay on HCT-15; > 100 µM (inactive) with NCI/ADR-RES; 49.3 µM (inactive) in the assay with SR; > 100 µM (inactive) with DU-145; > 100 µM (inactive) with SNB-19; 88.3 µM (inactive) with SF-295. Moreover, the GI50 with TK-10 was > 10 µM (inactive); in the assay on MOLT-4 it was 57.8 µM (inactive).
`CCCCCCCC1(N=[N+]=[N-])C(=O)Nc2ccccc2C1=O` (stereo not given): the GI50 in the assay with NCI-H23 was 18.2 µM (inactive); in the assay on LOX IMVI, 13.3 µM (inactive); in the assay with HL-60, > 10 µM (inactive); in the assay on SNB-75, 14 µM (inactive); with MDA-MB-435, 18.2 µM (inactive); in the assay on UACC-257 it was 21 µM (inactive). Further, the GI50 in the assay on CAKI-1 was 14.7 µM (inactive); with SK-MEL-2, 16.8 µM (inactive); with COLO 205, 20 µM (inactive); in the assay on OVCAR-4 it was 16.2 µM (inactive); in the assay on CCRF-CEM it was 17.1 µM (inactive); with SF-268, 15.6 µM (inactive). For the same compound, the GI50 with HCT-15 is 21.9 µM; with NCI/ADR-RES, 18.9 µM (inactive); with SR, 24.2 µM (inactive); with DU-145, 14.9 µM (inactive); in the assay with SNB-19, 17.5 µM (inactive); in the assay on SF-295 it was 17.3 µM (inactive). The GI50 in the assay with TK-10 was 17.2 µM (inactive); in the assay with MOLT-4 it was 10.4 µM (inactive).
In the case of `FC1(F)SC2CCCCCCCCCCC2C1(F)F` (stereo not given), the GI50 is 23.8 µM (inactive) in the assay on NCI-H23; 16.4 µM (inactive) in the assay on LOX IMVI; 15.4 µM (inactive) in the assay on HL-60; 30.6 µM (inactive) with SNB-75; 28.3 µM (inactive) with MDA-MB-435; 20.5 µM (inactive) in the assay with UACC-257. For the same compound, the GI50 with CAKI-1 is 59.6 µM (inactive); in the assay with SK-MEL-2, 18.2 µM (inactive); in the assay with COLO 205, 18.6 µM (inactive); with OVCAR-4, 22.1 µM (inactive); in the assay on CCRF-CEM it was 19.2 µM (inactive); in the assay with SF-268 it was 29.2 µM (inactive). Besides, the GI50 in the assay with HCT-15 is 42.5 µM; with NCI/ADR-RES, 63.4 µM (inactive); in the assay with SR it was 67.5 µM (inactive); with DU-145, 31.1 µM (inactive); in the assay on SNB-19 it was > 100 µM (inactive); with SF-295, 28.6 µM (inactive). Further, the results for the GI50 in the assay with TK-10 and in the assay on MOLT-4 were 56.2 µM (inactive) and 28.2 µM (inactive), respectively.
`CC1(c2ccc(Cl)cc2)CC(c2ccc(Cl)cc2)=C(C#N)C(=C(C#N)C#N)N1` (stereo not given): the GI50 with NCI-H23 was 17.3 µM (inactive); in the assay with LOX IMVI it was 17.3 µM (inactive); in the assay with HL-60, 19.7 µM (inactive); with SNB-75, 19.4 µM (inactive); in the assay on MDA-MB-435, 18 µM (inactive); with UACC-257, 17.7 µM (inactive). Further, the GI50 was 16.8 µM (inactive) with CAKI-1; 22.9 µM (inactive) in the assay on SK-MEL-2; 12.8 µM (inactive) with COLO 205; 14.8 µM (inactive) in the assay on OVCAR-4; 3.11 µM (inactive) in the assay on CCRF-CEM; 7.83 µM (inactive) with SF-268. Also, the GI50 in the assay with HCT-15 is 15.8 µM; in the assay with NCI/ADR-RES, 19.3 µM (inactive); in the assay with SR, 11.5 µM (inactive); in the assay on DU-145, 14.9 µM (inactive); in the assay on SNB-19 it was 17.5 µM (inactive); in the assay on SF-295, 14.7 µM (inactive). Moreover, the GI50 in the assay with TK-10 is 17.8 µM (inactive); with MOLT-4, 6.81 µM (inactive).
